Experimental data taken from BindingDB's records for doi:10.3109/14756366.2012.715288 (Ankara University, 2013).

Legend:
[1] = target: Tyrosine-protein kinase Lyn (Homo sapiens, UniProt P07948); experiment: In Vitor Src Tyrosine Kinase Activity Assay; details: 22 °C
Method: (§1) Kinase activity (Src-family kinases, Hck, Lyn, Fyn, and c-Src) and the effect of the molecules were determined by ProFluor Src-Family Kinase Assay Kit (Promega). […] The compounds were dissolved in 10% DMSO and tested at 1, 10 and 100 μM concentrations. Briefly, the molecules were mixed with a reaction buffer that included a specific substrate for Src-family kinases (R110), a control substrate and the kinase. The reaction was initiated by the addition of ATP. After incubating the 96-well reaction plate at 22°C for 1 h, protease solution was added to each well and the plate was incubated for 1 h.

[2] = target: Proto-oncogene tyrosine-protein kinase Src (Homo sapiens, UniProt P12931); experiment: In Vitor Src Tyrosine Kinase Activity Assay; details: 22 °C
Chain of Proto-oncogene tyrosine-protein kinase Src (P12931 2-536 limits assumed): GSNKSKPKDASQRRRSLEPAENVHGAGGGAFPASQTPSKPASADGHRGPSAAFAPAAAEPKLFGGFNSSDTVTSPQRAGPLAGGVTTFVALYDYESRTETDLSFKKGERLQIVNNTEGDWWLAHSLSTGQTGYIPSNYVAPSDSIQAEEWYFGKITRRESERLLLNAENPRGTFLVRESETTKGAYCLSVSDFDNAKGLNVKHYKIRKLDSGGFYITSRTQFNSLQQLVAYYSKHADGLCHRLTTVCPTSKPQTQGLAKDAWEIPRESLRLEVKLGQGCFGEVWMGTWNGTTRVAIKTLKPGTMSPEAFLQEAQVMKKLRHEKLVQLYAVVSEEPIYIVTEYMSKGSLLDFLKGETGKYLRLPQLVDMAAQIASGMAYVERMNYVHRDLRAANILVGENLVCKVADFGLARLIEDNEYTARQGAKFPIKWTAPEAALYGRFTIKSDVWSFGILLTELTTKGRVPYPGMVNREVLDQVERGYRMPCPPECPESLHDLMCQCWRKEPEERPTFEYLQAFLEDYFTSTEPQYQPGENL
Method: as §1

Chain of Tyrosine-protein kinase Lyn (P07948 whole entry): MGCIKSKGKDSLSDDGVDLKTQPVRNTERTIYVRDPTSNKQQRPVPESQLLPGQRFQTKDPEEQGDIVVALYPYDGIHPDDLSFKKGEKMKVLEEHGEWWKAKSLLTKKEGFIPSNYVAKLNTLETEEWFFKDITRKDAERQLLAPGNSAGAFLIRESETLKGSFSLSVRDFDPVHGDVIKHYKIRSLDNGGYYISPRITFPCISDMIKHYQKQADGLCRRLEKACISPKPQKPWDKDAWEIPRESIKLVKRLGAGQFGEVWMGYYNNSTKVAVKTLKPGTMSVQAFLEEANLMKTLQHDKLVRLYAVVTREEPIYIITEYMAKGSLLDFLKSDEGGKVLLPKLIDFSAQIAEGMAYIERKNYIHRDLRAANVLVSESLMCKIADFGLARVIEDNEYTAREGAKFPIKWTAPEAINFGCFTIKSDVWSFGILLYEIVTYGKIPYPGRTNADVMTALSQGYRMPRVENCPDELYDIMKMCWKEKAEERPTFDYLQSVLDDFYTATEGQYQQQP

Structure (SMILES)	IC50 [1] [µM]	IC50 [2] [µM]
CN1CCN(C2CCC(n3cc(-c4ccc(Oc5ccccc5)cc4)c4c(N)ncnc43)CC2)CC1 (centres undefined) [A-419259]	0.0003	–
COc1cccc(-c2cn(-c3ccc(CCN4CCC(O)CC4)cc3)c3ncnc(N)c23)c1 [CGP77675]	–	0.0004
COc1ccc(CCCC(=O)NCc2c[nH]c3nc(N)[nH]c(=O)c23)cc1OC [N-((2-Amino-4-oxo-4,7-dihydro-3H-pyrrolo[2,3-d]pyrimidin-5-yl)methyl)-4-(3,4-dimethoxyphenyl)butanamide (5)]	–	21
Cc1ccc(C(=O)NCc2c[nH]c3nc(N)[nH]c(=O)c23)s1 [N-[(2-Amino-4-oxo-4,7-dihydro-3H-pyrrolo[2,3-d]pyrimidin-5-yl)methyl]-5-methylthiophene-2-carboxamide (7)]	–	16
